Like-named read-outs stand apart in the source and are kept apart here.
Experiments:
hCA II [1] = molecular target: T1, hCA II (Homo sapiens, UniProt P00918); assay: stopped-flow CO2 hydrase assay, hCA II; format: biochemical; settings: mean from three determinations, errors 5–10%
T1 construct: made in house
Experimental: (§1) An Applied Photophysics stopped-flow instrument has been used for assaying the CA catalysed CO2 hydration activity. […] The CO2 concentrations ranged from 1.7 to 17 mM for the determination of the kinetic parameters and inhibition constants. In particular, CO2 was bubbled in distilled deionised water for 30 min till saturation. A CO2 kit (Sigma, Milan, Italy) was used to measure the concentration in serially diluted solutions from the saturated one at the same temperature. […] The uncatalyzed rates were determined in the same manner and subtracted from the total observed rates. Stock solutions of inhibitor (1 µM) were prepared in distilled-deionised water and dilutions up to 0.1 nM were done thereafter with the assay buffer. […] The inhibition constants were obtained by non-linear least-squares methods using PRISM 3 and the Cheng-Prusoff equation[29], and represent the average from at least three different determinations. All recombinant CA isoforms were obtained in-house as previously reported[30]^,[31].

hCA XII [2] = molecular target: T2, hCA XII (Homo sapiens, UniProt O43570); assay: stopped-flow CO2 hydrase assay, hCA XII; format: biochemical; settings: mean from three determinations, errors 5–10%
T2 construct: made in house
T2 sequence (O43570 25-354): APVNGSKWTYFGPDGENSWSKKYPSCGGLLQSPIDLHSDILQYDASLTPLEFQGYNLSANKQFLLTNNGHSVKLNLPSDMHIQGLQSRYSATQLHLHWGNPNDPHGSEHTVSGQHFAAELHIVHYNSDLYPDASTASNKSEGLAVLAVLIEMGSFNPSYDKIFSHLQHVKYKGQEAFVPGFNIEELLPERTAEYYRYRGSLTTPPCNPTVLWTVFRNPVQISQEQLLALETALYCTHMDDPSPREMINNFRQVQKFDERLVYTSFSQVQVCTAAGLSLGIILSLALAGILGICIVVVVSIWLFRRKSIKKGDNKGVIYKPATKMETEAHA
Experimental: as §1

hCA IX [3] = molecular target: T3, hCA IX (Homo sapiens, UniProt Q16790); assay: stopped-flow CO2 hydrase assay, hCA IX; format: biochemical; settings: mean from three determinations, errors 5–10%
T3 construct: made in house
Experimental: as §1

hCA I [4] = molecular target: T4, hCA I (Homo sapiens, UniProt P00915); assay: stopped-flow CO2 hydrase assay, hCA I; format: biochemical; settings: mean from three determinations, errors 5–10%
T4 construct: made in house
T4 sequence (P00915 whole entry): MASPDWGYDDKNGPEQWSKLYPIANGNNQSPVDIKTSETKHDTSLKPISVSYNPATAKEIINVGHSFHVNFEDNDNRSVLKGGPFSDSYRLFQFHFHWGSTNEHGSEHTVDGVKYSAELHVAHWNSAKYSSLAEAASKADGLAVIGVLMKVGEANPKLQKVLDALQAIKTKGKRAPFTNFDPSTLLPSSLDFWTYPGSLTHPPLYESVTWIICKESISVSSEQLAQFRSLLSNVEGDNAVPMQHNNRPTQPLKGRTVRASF
Experimental: as §1

hCA XII [5] = molecular target: T2, hCA XII; set-up: method as in PMID 25407638; settings: lead compound, earlier report; cited from earlier work
hCA I [6] = molecular target: T4, hCA I; set-up: method as in PMID 25407638; settings: lead compound, earlier report; cited from earlier work
hCA IX [7] = molecular target: T3, hCA IX; set-up: method as in PMID 25407638; settings: lead compound, earlier report; cited from earlier work
hCA II [8] = molecular target: T1, hCA II; set-up: method as in PMID 25407638; settings: lead compound, earlier report; cited from earlier work

For `CCCCCSc1ccccc1C(N)=O` [Compound 36], the Ki (hCA II [1]) was > 100 µM, the Ki (hCA XII [2]) was > 100 µM and the Ki (hCA IX [3]) was 2.7 µM. The Ki (hCA I [4]) was > 100 µM.
In the case of `O=C(O)c1ccccc1OCc1ccccc1` [Compound 39], the Ki (hCA II [1]) is reported as > 100 µM, the Ki (hCA XII [2]) is reported as > 100 µM and the Ki (hCA IX [3]) is reported as > 100 µM. The Ki (hCA I [4]) was > 100 µM.
In the case of `CC(=O)c1ccccc1SCc1ccccc1` [Compound 1], the Ki (hCA II [1]) is reported as > 100 µM, the Ki (hCA IX [3]) is reported as 1.1 µM and the Ki (hCA I [4]) is reported as > 100 µM.
In the case of `CC(=O)c1ccccc1OCc1ccccc1` [Compound 52], the Ki (hCA II [1]) is reported as > 100 µM, the Ki (hCA XII [2]) is reported as > 100 µM and the Ki (hCA IX [3]) is reported as > 100 µM. The Ki (hCA I [4]) was > 100 µM.
For `COC(=O)c1ccccc1[S@+]([O-])Cc1ccccc1` [(R)-8], the Ki (hCA II [1]) was 84.9 µM, the Ki (hCA IX [3]) was 15.3 µM and the Ki (hCA I [4]) was > 100 µM.
For `CNC(=O)c1ccccc1SCc1ccccc1` [Compound 19], the Ki (hCA II [1]) was 86.3 µM, the Ki (hCA IX [3]) was 19.8 µM and the Ki (hCA I [4]) was > 100 µM.
For `O=C(O)c1ccccc1CCc1ccccc1` [Compound 41], the Ki (hCA II [1]) was > 100 µM, the Ki (hCA XII [2]) was > 100 µM and the Ki (hCA IX [3]) was > 100 µM. For the same compound, the Ki (hCA I [4]) was > 100 µM.
In the case of `COC(=O)c1ccccc1OCc1ccccc1` [Compound 44], the Ki (hCA II [1]) is reported as > 100 µM, the Ki (hCA XII [2]) is reported as > 100 µM and the Ki (hCA IX [3]) is reported as > 100 µM. The Ki (hCA I [4]) was > 100 µM.
In the case of `COC(=O)c1ccccc1[S@@+]([O-])Cc1ccccc1` [(S)-8], the Ki (hCA II [1]) is reported as 65.7 µM, the Ki (hCA IX [3]) is reported as 20 µM and the Ki (hCA I [4]) is reported as > 100 µM.
With `COC(=O)c1ccccc1SCc1ccccc1` [Compound 7] the Ki (hCA II [1]) was 75.2 µM, the Ki (hCA IX [3]) was 15 µM and the Ki (hCA I [4]) was > 100 µM.
With `CS(=O)(=O)c1ccccc1C(N)=O` [Compound 26] the Ki (hCA II [1]) was > 100 µM, the Ki (hCA XII [2]) was > 100 µM and the Ki (hCA IX [3]) was 14 µM. The Ki (hCA I [4]) was > 100 µM.
With `CCCS(=O)(=O)c1ccccc1C(N)=O` [Compound 32] the Ki (hCA II [1]) was > 100 µM, the Ki (hCA XII [2]) was > 100 µM and the Ki (hCA IX [3]) was 2.3 µM. For the same compound, the Ki (hCA I [4]) was > 100 µM.
In the case of `Nc1ccccc1C(=O)O` [Compound 43, anthranilic acid], the Ki (hCA II [1]) is reported as > 100 µM, the Ki (hCA XII [2]) is reported as > 100 µM and the Ki (hCA IX [3]) is reported as > 100 µM. For the same compound, the Ki (hCA I [4]) was > 100 µM.
In the case of `COC(=O)c1ccccc1S(=O)(=O)Cc1ccc(Cl)cc1` [Compound 12], the Ki (hCA II [1]) is reported as 40.1 µM, the Ki (hCA IX [3]) is reported as 21.1 µM and the Ki (hCA I [4]) is reported as > 100 µM.
For `COC(=O)c1ccccc1[S+]([O-])CC(=O)c1ccccc1` (centres unmarked) [Compound 14], the Ki (hCA II [1]) was > 100 µM, the Ki (hCA IX [3]) was > 100 µM and the Ki (hCA I [4]) was > 100 µM.
In the case of `NC(=O)c1ccccc1[S@@+]([O-])Cc1ccccc1` [(S)-17], the Ki (hCA II [1]) is reported as 51.9 µM, the Ki (hCA IX [3]) is reported as 1.9 µM and the Ki (hCA I [4]) is reported as > 100 µM.
For `CCCC[S+]([O-])c1ccccc1C(N)=O` (centres unmarked) [Compound 34], the Ki (hCA II [1]) was > 100 µM, the Ki (hCA XII [2]) was > 100 µM and the Ki (hCA IX [3]) was 36.4 µM. The Ki (hCA I [4]) was > 100 µM.
In the case of `NC(=O)c1ccccc1NC(=O)Cc1ccccc1` [Compound 50], the Ki (hCA II [1]) is reported as > 100 µM, the Ki (hCA XII [2]) is reported as > 100 µM and the Ki (hCA IX [3]) is reported as > 100 µM. For the same compound, the Ki (hCA I [4]) was > 100 µM.
With `NC(=O)c1ccccc1SCc1ccccc1` [Compound 16] the Ki (hCA II [1]) was 8.22 µM, the Ki (hCA XII [2]) was 2.66 µM and the “Ki hCA XII” value (hCA XII [2]) was “medium-potency inhibitor”. For the same compound, the Ki (hCA IX [3]) was 0.046 µM and the Ki (hCA I [4]) was > 10 µM.
In the case of `COC(=O)c1ccccc1S(=O)(=O)CC(=O)c1ccccc1` [Compound 15], the Ki (hCA II [1]) is reported as > 100 µM, the Ki (hCA IX [3]) is reported as > 100 µM and the Ki (hCA I [4]) is reported as > 100 µM.
With `CNC(=O)c1ccccc1S(=O)(=O)Cc1ccccc1` [Compound 21] the Ki (hCA II [1]) was 68.2 µM, the Ki (hCA IX [3]) was 25.8 µM and the Ki (hCA I [4]) was > 100 µM.
For `O=C(O)c1ccccc1[S+]([O-])Cc1ccccc1` (centres unmarked) [lead compound, 2-(benzylsulfinyl)benzoic acid], the Ki (hCA XII [5]) is given as > 10 µM, the Ki (hCA I [6]) is given as > 10 µM and the Ki (hCA IX [7]) is given as 1.29 µM. For the same compound, the Ki (hCA II [8]) was 0.15 µM.
In the case of `NC(=O)c1ccccc1[S@+]([O-])Cc1ccccc1` [(R)-17], the Ki (hCA II [1]) is reported as 52.2 µM, the Ki (hCA IX [3]) is reported as 2.2 µM and the Ki (hCA I [4]) is reported as > 100 µM.
For `O=C(Cc1ccccc1)Nc1ccccc1C(=O)O` [Compound 42], the Ki (hCA II [1]) was > 100 µM, the Ki (hCA XII [2]) was > 100 µM and the Ki (hCA IX [3]) was > 100 µM. For the same compound, the Ki (hCA I [4]) was > 100 µM.
With `COC(=O)c1ccccc1CCc1ccccc1` [Compound 46] the Ki (hCA II [1]) was > 100 µM, the Ki (hCA XII [2]) was > 100 µM and the Ki (hCA IX [3]) was > 100 µM. For the same compound, the Ki (hCA I [4]) was > 100 µM.
For `COC(=O)c1ccccc1[S@@+]([O-])Cc1ccc(Cl)cc1` [(S)-11], the Ki (hCA II [1]) was > 100 µM, the Ki (hCA IX [3]) was 18.1 µM and the Ki (hCA I [4]) was > 100 µM.
For `NC(=O)c1ccccc1CCc1ccccc1` [Compound 49], the Ki (hCA II [1]) was > 100 µM, the Ki (hCA XII [2]) was > 100 µM and the Ki (hCA IX [3]) was > 100 µM. The Ki (hCA I [4]) was > 100 µM.
In the case of `NC(=O)c1ccccc1NCc1ccccc1` [Compound 48], the Ki (hCA II [1]) is reported as > 100 µM, the Ki (hCA XII [2]) is reported as > 100 µM and the Ki (hCA IX [3]) is reported as > 100 µM. For the same compound, the Ki (hCA I [4]) was > 100 µM.
In the case of `CNC(=O)c1ccccc1[S@@+]([O-])Cc1ccccc1` [(S)-20], the Ki (hCA II [1]) is reported as 38.9 µM, the Ki (hCA IX [3]) is reported as 24.6 µM and the Ki (hCA I [4]) is reported as > 100 µM.
